Positions count from the first letter of the chain named. pEC50: −log10 of the molar value. Where two headings read alike, the source gives them in different places.
What was measured:
Assay type in all cases: cell-based
[1] = target: T1, F876L mutant Androgen Receptor (AR-F876L) (Homo sapiens, UniProt P10275, F877L); test: LNCaP-AR-F876L ANT reporter assay (ARE firefly luciferase, antagonist mode); conditions: for Emax: read-out: LNCaP-AR-F876L ANT MAX % Inh; for IC50: read-out: LNCaP-AR-F876L ANT pIC50 (converted)
T1 construct: expressed in transfected cells; host or cells: LNCaP (LNCaP F876L)
T1 sequence (P10275 1-920 F877L): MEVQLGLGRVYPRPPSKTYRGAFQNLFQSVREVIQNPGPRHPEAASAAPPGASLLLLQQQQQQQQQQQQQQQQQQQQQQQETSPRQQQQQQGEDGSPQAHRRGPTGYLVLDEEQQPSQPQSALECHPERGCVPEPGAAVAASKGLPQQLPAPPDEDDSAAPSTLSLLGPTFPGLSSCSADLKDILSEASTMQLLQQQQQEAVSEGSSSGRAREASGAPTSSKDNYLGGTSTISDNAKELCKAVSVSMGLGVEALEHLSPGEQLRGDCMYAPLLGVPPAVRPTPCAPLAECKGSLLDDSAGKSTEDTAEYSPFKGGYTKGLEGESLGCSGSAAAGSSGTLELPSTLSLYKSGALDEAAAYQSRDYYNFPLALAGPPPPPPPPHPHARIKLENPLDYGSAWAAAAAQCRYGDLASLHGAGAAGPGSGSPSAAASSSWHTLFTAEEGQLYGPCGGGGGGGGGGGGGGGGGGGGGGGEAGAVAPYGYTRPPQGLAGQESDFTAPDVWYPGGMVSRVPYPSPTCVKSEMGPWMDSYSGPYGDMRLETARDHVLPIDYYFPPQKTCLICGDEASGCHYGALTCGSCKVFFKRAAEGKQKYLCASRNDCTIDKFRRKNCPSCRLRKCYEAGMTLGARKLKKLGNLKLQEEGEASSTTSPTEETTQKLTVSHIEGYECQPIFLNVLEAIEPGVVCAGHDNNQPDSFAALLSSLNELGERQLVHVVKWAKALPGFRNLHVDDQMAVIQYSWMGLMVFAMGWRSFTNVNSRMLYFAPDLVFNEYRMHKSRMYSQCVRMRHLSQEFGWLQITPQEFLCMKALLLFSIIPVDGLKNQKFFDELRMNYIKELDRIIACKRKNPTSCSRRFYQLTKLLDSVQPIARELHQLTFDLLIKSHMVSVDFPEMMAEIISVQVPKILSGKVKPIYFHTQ
How it was run: (§1)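 LNCaP stable pooled lines expressing ARE-firefly luciferase, in charcoal-stripped serum medium, were exposed to compounds; antagonist mode used agonist at 400 pM (WT) or 600 pM (F876L).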

[2] = target: T2, wild-type Androgen Receptor (AR-wt) (Homo sapiens, UniProt P10275); test: LNCaP-AR-wt AG reporter assay (ARE firefly luciferase, agonist mode); conditions: for EC50: agonist mode, −Log10(EC50 [Molar]), read-out: LNCaP-AR-wt AG pEC50 (converted); for Emax: read-out: LNCaP-AR-wt AG MAX % Stim
T2 construct: expressed in transfected cells; host or cells: LNCaP (LNCaP AR (cs))
T2 sequence (P10275 1-920): T1 sequence (P10275 1-920 F877L) with L877F
How it was run: (§2)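 Puromycin-selected pooled LNCaP populations expressing AR-wt or AR-F876L are seeded in CSS medium and treated with compound for 20-24 h at 37 °C. For antagonist testing, agonist is added at 400 pM (WT) or 600 pM (F876L). Potency values derive from least-squares fitting of luminescence RLU.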

[3] = target: T1, F876L mutant Androgen Receptor (AR-F876L); test: LNCaP-AR-F876L AG reporter assay (ARE firefly luciferase, agonist mode); conditions: for EC50: agonist mode, −Log10(EC50 [Molar]), read-out: LNCaP-AR-F876L AG pEC50 (converted); for Emax: read-out: LNCaP-AR-F876L AG MAX % Stim
How it was run: as §2

[4] = target: T2, wild-type Androgen Receptor (AR-wt); test: LNCaP-AR-wt ANT reporter assay (ARE firefly luciferase, antagonist mode); conditions: for IC50: antagonist mode, 400 pM R-1881 challenge, −Log10(IC50 [Molar]), read-out: LNCaP-AR-wt ANT pIC50 (converted); for Emax: read-out: LNCaP-AR-wt ANT MAX % Inh
How it was run: as §1

[5] = maximum % inhibition of R1881 control response over tested concentration range
[6] = maximum % stimulation (agonist response) over tested concentration range

SMILES | Emax [1, 5] [%] | IC50 [1] [nM] | EC50 [2] [nM] | Emax [2, 6] [%] | EC50 [3] [nM] | Emax [3, 6] [%] | IC50 [4] [nM] | Emax [4, 5] [%] | Emax [1] [%] | pEC50 [2] | Emax [2] [%] | pEC50 [3] | Emax [3] [%] | Emax [4] [%]
Cc1cc(N2C(=O)C3(CCC3)N(c3ccc(OC4CCN(C)CC4)cc3)C2=S)cnc1C#N [Cpd 4, 3-methyl-5-[8-[4-[(1-methyl-4-piperidyl)oxy]phenyl]-5-oxo-7-thioxo-6,8-diazaspiro[3.4]octan-6-yl]pyridine-2-carbonitrile] | 100 | 269 | > 15100 | 0.2 | > 15100 | -0.4 | 1100 | 100 |  |  |  |  |  | 
Cc1cc(N2C(=O)C3(CCC3)N(c3ccc(C4CCOCC4)cc3)C2=S)cnc1C#N [Cpd 101, 3-methyl-5-[5-oxo-8-(4-tetrahydropyran-4-ylphenyl)-7-thioxo-6,8-diazaspiro[3.4]octan-6-yl]pyridine-2-carbonitrile] |  | 363 |  |  |  |  | 479 |  | 95.3 | < 4.82 | 1.1 | < 4.82 | 1.7 | 99.4
CCOC(=O)CCCNC(=O)c1ccc(N2C(=S)N(c3cnc(C#N)c(C(F)(F)F)c3)C(=O)C23CCC3)cc1F [Cpd 82, ethyl 4-[[4-[6-[6-cyano-5-(trifluoromethyl)-3-pyridyl]-5-oxo-7-thioxo-6,8-diazaspiro[3.4]octan-8-yl]-2-fluoro-benzoyl]amino]butanoate] | 95.5 | 437 | > 15100 | 0 | > 15100 | 1.2 | 363 | 103 |  |  |  |  |  | 
Cc1cc(N2C(=O)C3(CCC3)N(c3ccc(C(=O)Nc4cccc(Cl)c4)c(F)c3)C2=S)cnc1C#N [Cpd 78, N-(3-chlorophenyl)-4-[6-(6-cyano-5-methyl-3-pyridyl)-5-oxo-7-thioxo-6,8-diazaspiro[3.4]octan-8-yl]-2-fluoro-benzamide] | 95.9 | 1050 | > 15100 | 0.7 | > 15100 | 1 | 1320 | 96.5 |  |  |  |  |  | 
N#Cc1ncc(N2C(=O)C3(CCC3)N(c3ccc(C(=O)NCCc4cccnc4)c(F)c3)C2=S)cc1C(F)(F)F [Cpd 96, 4-[6-[6-cyano-5-(trifluoromethyl)-3-pyridyl]-5-oxo-7-thioxo-6,8-diazaspiro[3.4]octan-8-yl]-2-fluoro-N-[2-(3-pyridyl)ethyl]benzamide] | 100 | 347 | > 15100 | 1.5 | > 15100 | 0.8 | 407 | 101 |  |  |  |  |  | 
CN1CCC(NC(=O)c2ccc(N3C(=S)N(c4cnc(C#N)c(C(F)(F)F)c4)C(=O)C34CCC4)cc2F)CC1 [Cpd 109, 4-[6-[6-cyano-5-(trifluoromethyl)-3-pyridyl]-5-oxo-7-thioxo-6,8-diazaspiro[3.4]octan-8-yl]-2-fluoro-N-(1-methyl-4-piperidyl)benzamide] | 98.4 | 741 | > 15100 | 0.2 | > 15100 | 1.1 | 1950 | 97.9 |  |  |  |  |  | 
N#Cc1ncc(N2C(=O)C3(CCC3)N(c3cccc(OC(F)(F)F)c3)C2=S)cc1C(F)(F)F [Cpd 97, 5-[5-oxo-7-thioxo-8-[3-(trifluoromethoxy)phenyl]-6,8-diazaspiro[3.4]octan-6-yl]-3-(trifluoromethyl)pyridine-2-carbonitrile] | 99.6 | 676 | > 15100 |  | > 15100 |  | 912 | 100 |  |  | 0.7 |  | 1.6 | 
Cc1cc(N2C(=O)C3(CCC3)N(c3ccc(OC4CCN(C)CC4)c(F)c3)C2=S)cnc1C#N [Cpd 116, 5-[8-[3-fluoro-4-[(1-methyl-4-piperidyl)oxy]phenyl]-5-oxo-7-thioxo-6,8-diazaspiro[3.4]octan-6-yl]-3-methyl-pyridine-2-carbonitrile] | 98.6 | 631 | > 15100 | 1.1 | > 15100 | 3.5 | 2570 | 95.3 |  |  |  |  |  | 
N#Cc1ncc(N2C(=O)C3(CCC3)N(c3ccc(C(N)=O)c(F)c3)C2=S)cc1C(F)(F)F [Cpd 80, 4-[6-[6-cyano-5-(trifluoromethyl)-3-pyridyl]-5-oxo-7-thioxo-6,8-diazaspiro[3.4]octan-8-yl]-2-fluoro-benzamide] | 95.4 | 427 | > 15100 | 0.4 | > 15100 | 1.2 | 891 | 100 |  |  |  |  |  | 
Cc1cc(N2C(=O)C(C)(C)N(c3ccc(OC4CCN(C)CC4)cc3)C2=S)cnc1C#N [Cpd 1, 5-[4,4-dimethyl-3-[4-[(1-methyl-4-piperidyl)oxy]phenyl]-5-oxo-2-thioxo-imidazolidin-1-yl]-3-methyl-pyridine-2-carbonitrile] | 101 | 513 | > 15100 | 0.5 | > 15100 | -0.6 | 871 | 100 |  |  |  |  |  | 
N#Cc1ncc(N2C(=O)C3(CCC3)N(c3ccc4ccccc4c3)C2=S)cc1C(F)(F)F [Cpd 18, 5-[8-(2-naphthyl)-5-oxo-7-thioxo-6,8-diazaspiro[3.4]octan-6-yl]-3-(trifluoromethyl)pyridine-2-carbonitrile] |  | 191 |  |  |  |  | 204 |  | 101 | < 4.82 | -0.2 | < 4.82 | 0 | 101
N#Cc1ncc(N2C(=O)C3(CCC3)N(c3cccc(F)c3F)C2=S)cc1C(F)(F)F [Cpd 106, 5-[8-(2,3-difluorophenyl)-5-oxo-7-thioxo-6,8-diazaspiro[3.4]octan-6-yl]-3-(trifluoromethyl)pyridine-2-carbonitrile] | 95.9 | 631 | > 15100 | 1.8 | > 15100 | 2.4 | 617 | 101 |  |  |  |  |  | 
